Measurements reported in patent publication US20150352127A1, “INHALATION PARTICLES COMPRISING A COMBINATION OF AN ANTICHOLINERGIC, A CORTICOSTEROID AND A BETA-ADRENERGIC” (CHIESI FARMACEUTICI S.P.A., priority 2014, published 2015).
Where a name gives a salt, the structure may show the parent alone.

Tests used:
Type in all cases: physicochemical
[1] = Drug content of the microparticles by UPLC assay; details: in spray dried microparticles of Example 1; mean±SD, n=5
[2] = Uniformity of distribution of the active ingredients in the powder formulation (UPLC-PDA); details: powder formulation of Example 3; for Content: sampled 10 times
Experimental: About 10 mg of the formulation was weighed directly into a 25 mL volumetric flask. It was sampled 10 times. The flask was made up to volume with 60:40% v/v MeOH:H2O and sonicated for 2 minutes. The samples were analyzed for each active ingredient using UPLC-PDA assay.

[3] = Aerosol performances by Next Generation Impactor (NGI) from NEXThaler; details: formulation of Example 3, NEXThaler, 60 L/min; mean±S.D., n=6
Experimental: Aerosol performances were determined using the Next Generation Impactor (NGI) with a USP induction port and pre-separator containing 15 mL 60:40% v/v MeOH:H2O. […] The aerodynamic particle size distribution was based on 5 actuations from the NEXThaler®, each sampled into 4 liters of air (equivalent to an inhalation time of 4 s). The device was weighed before and after each actuation to determine the shot weight (mg). A minimum of 1 minute was allowed between consecutive actuations to allow static charge to dissipate.
Samples were collected from the NGI using a fixed volume technique. MeOH:H2O (60:40% v/v) was dispensed into the induction port (including mouthpiece); pre-separator; and each stage using an electronic metering dispenser. The induction port (30 mL) and pre-separator (50 mL) were sealed using silicone bungs and shaken by hand for 2 minutes before the samples were collected. The NGI stages (10 mL stages 1-2; 15 mL stage 3-MOC) were rocked using a NGI rocker for 3 minutes. All samples were filtered using a 0.2 μm syringe filter before analysis by UPLC-PDA.

Row | SMILES | Actual concentration [1] [% w/w] | % of Target [2] [%] | Content [2] [μg 10 mg^−1] | DD (delivered dose) [3] [µg] | FPF (fine particle fraction) [3] [%] | FPF < 1 μm (extrafine FPF) [3] [%] | FPF < 2 μm (extrafine FPF) [3] [%] | FPM (fine particle mass, ≤5.0 micron) [3] [µg] | MMAD [3] [μm]
1 | C[N+]1(C)CCC(OC(=O)C(O)(c2ccccc2)C2CCCC2)C1 (racemic) [GB, glycopyrronium bromide] | 10.6 ± 0.1 | 105.37 | 12.64 ± 0.18 | 11.5 ± 0.4 | 68.5 ± 3.7 | 21.7 ± 0.7 | 39.3 ± 1.6 | 7.9 ± 0.5 | 1.9 ± 0.1
2 | COc1ccc(CC(C)NCC(O)c2ccc(O)c(NC=O)c2)cc1 (stereo not shown) [FF, formoterol fumarate dihydrate] |  |  |  | 5.2 ± 0.1 |  |  |  |  | 
3 | CCC(=O)OCC(=O)[C@@]1(OC(=O)CC)[C@@H](C)C[C@H]2[C@@H]3CCC4=CC(=O)C=C[C@]4(C)[C@@]3(Cl)[C@@H](O)C[C@@]21C [BDP, beclometasone dipropionate] | 82.0 ± 0.3 | 98.75 | 98.75 ± 1.23 | 87.6 ± 2.2 | 68.5 ± 3.1 | 20.8 ± 0.7 | 38.6 ± 1.2 | 60.0 ± 3.6 | 1.9 ± 0.1
